The source of these data is ChEMBL document CHEMBL1201862, “PubChem BioAssay data set” (2004).

Molecules are shown by their SMILES.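 Results reflect a 48-hour exposure of cells in 96-well plates to compound at five concentrations. The concentration for 50% growth inhibition is given as GI50.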 Activity calls are given as the source filed them. Rule as the data show it: active = GI50 up to about 1.1 µM and inactive = higher.

Among the test systems are 786-0; A498; A549; BT-549; HCC 2998; HCT-116; HT-29; LOX IMVI; M14; MDA-N; MOLT-4; Malme-3M; NCI-H23; NCI-H460; NCI-H522; OVCAR-4; OVCAR-8; SK-MEL-28; TK-10; U-251.
Test in all cases: inhibition of tumour cell growth, NCI panel, 48 h

As to `COc1ccc(P2(=S)SP(=S)(c3ccc(Cl)cc3)S2)cc1` (stereo not given), the GI50 in the assay with 786-0, with A498, in the assay on A549, with BT-549, with HCC 2998 and with HCT-116 was > 100 µM (inactive) each time. Also, the GI50 in the assay with HT-29, with LOX IMVI, in the assay on M14, in the assay with MDA-N, in the assay on MOLT-4 and with Malme-3M was > 100 µM (inactive) in each case. Besides, the GI50 in the assay with NCI-H23, in the assay with NCI-H460, with NCI-H522, with OVCAR-4, in the assay on OVCAR-8 and in the assay with SK-MEL-28 was > 100 µM (inactive) in each case. For the same compound, the GI50 in the assay on TK-10 and in the assay on U-251 was > 100 µM (inactive) in each case.
With `COc1c(Cl)c(=O)oc2ccc(Cl)cc12`, the GI50 with 786-0, in the assay on A498, in the assay on A549, with BT-549, with HCC 2998 and in the assay on HCT-116 was > 100 µM (inactive) throughout. The GI50 in the assay with HT-29, in the assay on LOX IMVI, with M14, with MDA-N, in the assay with MOLT-4 and with Malme-3M was > 100 µM (inactive) in each case. Moreover, the GI50 in the assay on NCI-H23, in the assay on NCI-H460, in the assay with NCI-H522, in the assay on OVCAR-4, in the assay with OVCAR-8 and in the assay on SK-MEL-28 was > 100 µM (inactive) throughout. Besides, the GI50 with TK-10 is > 100 µM (inactive); in the assay on U-251, 60.7 µM (inactive).
Turning to `O=S(=O)(CC#CCS(=O)(=O)c1ccccc1)c1ccccc1`, the GI50 in the assay on 786-0 is 0.973 µM (active); in the assay with A498, 16.1 µM (inactive); in the assay with A549, 19.1 µM (inactive); in the assay on BT-549, 3.13 µM (inactive); in the assay on HCC 2998, 18.7 µM (inactive); in the assay with HCT-116, 1.01 µM (active). For the same compound, the GI50 is 6.68 µM (inactive) in the assay on HT-29; 1.51 µM (inactive) in the assay on LOX IMVI; 1.86 µM (inactive) in the assay with M14; 1.77 µM (inactive) in the assay with MDA-N; 0.959 µM (active) in the assay with MOLT-4; 1.9 µM (inactive) with Malme-3M. Further, the GI50 is 2.98 µM (inactive) in the assay on NCI-H23; 12.6 µM (inactive) in the assay on NCI-H460; 0.659 µM (active) in the assay with NCI-H522; 1.84 µM (inactive) in the assay on OVCAR-4; 1.76 µM (inactive) in the assay on OVCAR-8; 7.46 µM (inactive) in the assay on SK-MEL-28. The values for the GI50 in the assay with TK-10 and in the assay with U-251 were 2.72 µM (inactive) and 8.55 µM (inactive), respectively.
Consider `C(=C\c1ccccc1)/COc1ccccc1C(N1CCOCC1)n1nc2ccccc2n1` (stereo not given), for which the GI50 in the assay with 786-0 is 3.29 µM (inactive); in the assay on A498 it was 38.1 µM (inactive); with A549, 41 µM (inactive); in the assay with BT-549 it was 7.55 µM (inactive); with HCC 2998, 17.5 µM (inactive); in the assay with HCT-116, 5.31 µM (inactive). For the same compound, the GI50 is 3 µM (inactive) in the assay on HT-29; 2.9 µM (inactive) in the assay with LOX IMVI; 2.58 µM (inactive) in the assay with M14; 0.621 µM (active) in the assay with MDA-N; 2.3 µM (inactive) in the assay on MOLT-4; 2.99 µM (inactive) with Malme-3M. Moreover, the GI50 in the assay on NCI-H23 is 5.35 µM (inactive); in the assay with NCI-H460 it was 15.4 µM (inactive); with NCI-H522 it was 22 µM (inactive); in the assay with OVCAR-4, 12.2 µM (inactive); in the assay with OVCAR-8, 3.5 µM (inactive); with SK-MEL-28 it was 10.7 µM (inactive). Besides, the values for the GI50 in the assay with TK-10 and with U-251 were 6.98 µM (inactive) and 3.08 µM (inactive), respectively.
For `CSc1c(C#N)c(O)n(-c2ccc(Cl)cc2)c(=O)c1C(C)=O`, the GI50 with 786-0 was 37.7 µM (inactive); with A498, 29.3 µM (inactive); in the assay with A549, 50.2 µM (inactive); in the assay on BT-549, 90.6 µM (inactive); with HCC 2998, > 100 µM (inactive); in the assay with HCT-116, 38.1 µM (inactive). The GI50 was 34.8 µM (inactive) in the assay on HT-29; 34.4 µM (inactive) with LOX IMVI; 89.9 µM (inactive) in the assay with M14; 55.5 µM (inactive) in the assay on MDA-N; 23 µM (inactive) in the assay with MOLT-4; 23.3 µM (inactive) in the assay on Malme-3M. Besides, the GI50 in the assay on NCI-H23 is 31.5 µM (inactive); in the assay with NCI-H460 it was > 100 µM (inactive); in the assay on NCI-H522, 0.433 µM (active); in the assay on OVCAR-4, 37.5 µM (inactive); in the assay on OVCAR-8, 42.4 µM (inactive); with SK-MEL-28, > 100 µM (inactive). For the same compound, the GI50 is 42.6 µM (inactive) with TK-10 and > 100 µM (inactive) in the assay with U-251.
`CC[C@@]1(O)C(=O)OCc2c1cc1n(c2=O)Cc2c-1nc1ccccc1c2/C=N\NC(=O)C(N)CCSC` (stereo not given in full): the GI50 was < 0.01 µM (active) in the assay on 786-0; 0.0628 µM (active) in the assay with A498; 0.0183 µM (active) with A549; 0.102 µM (active) with BT-549; 0.336 µM (active) with HCC 2998; 0.0253 µM (active) in the assay with HCT-116. For the same compound, the GI50 in the assay with HT-29 was 0.266 µM (active); in the assay with LOX IMVI, < 0.01 µM (active); in the assay with M14 it was < 0.0121 µM (active); in the assay on MDA-N it was 0.224 µM (active); with MOLT-4, < 0.01 µM (active); in the assay with Malme-3M it was 0.102 µM (active). Further, the GI50 with NCI-H23 is < 0.01 µM (active); with NCI-H460 it was < 0.01 µM (active); with NCI-H522 it was < 0.032 µM (active); in the assay on OVCAR-4, 0.299 µM (active); in the assay with OVCAR-8, < 0.0119 µM (active); in the assay on SK-MEL-28 it was 1.03 µM (active). For the same compound, the results for the GI50 in the assay with TK-10 and with U-251 were 6.4 µM (inactive) and < 0.01 µM (active), respectively.
Take `NC1C/C(=N\O)c2c(I)sc(I)c21` (stereo not given): the GI50 is 16 µM (inactive) in the assay on 786-0; 27 µM (inactive) in the assay with A498; 16 µM (inactive) with A549; 15.9 µM (inactive) with BT-549; 20.1 µM (inactive) with HCC 2998; 2.86 µM (inactive) in the assay on HCT-116. For the same compound, the GI50 was 19.2 µM (inactive) with HT-29; 1.77 µM (inactive) in the assay on LOX IMVI; 14.5 µM (inactive) in the assay with M14; 19.8 µM (inactive) with MDA-N; 3.05 µM (inactive) in the assay on MOLT-4; 15.7 µM (inactive) with Malme-3M. Also, the GI50 with NCI-H23 was 14.7 µM (inactive); in the assay on NCI-H460, 21.3 µM (inactive); in the assay on NCI-H522 it was 1.61 µM (inactive); in the assay with OVCAR-4 it was 22 µM (inactive); in the assay on OVCAR-8, 13.4 µM (inactive); in the assay with SK-MEL-28, 17.5 µM (inactive). Also, the figures for the GI50 in the assay with TK-10 and in the assay on U-251 were 16.9 µM (inactive) and 18.3 µM (inactive), respectively.
In the case of `CCC/C(Cl)=N\OC(=O)Nc1ccc(F)cc1`, the GI50 was 6.5 µM (inactive) in the assay with 786-0; 16.9 µM (inactive) with A498; 52.8 µM (inactive) in the assay with A549; 15.1 µM (inactive) with BT-549; 17.6 µM (inactive) in the assay on HCC 2998; 16.7 µM (inactive) with HCT-116. Further, the GI50 in the assay with HT-29 is 28.3 µM (inactive); in the assay with LOX IMVI, 4.15 µM (inactive); with M14, 14.6 µM (inactive); in the assay on MDA-N, 16.3 µM (inactive); in the assay with MOLT-4, 2.47 µM (inactive); in the assay with Malme-3M, 6.87 µM (inactive). Also, the GI50 is 20.3 µM (inactive) in the assay with NCI-H23; > 100 µM (inactive) in the assay with NCI-H460; 1.87 µM (inactive) in the assay with NCI-H522; 16.9 µM (inactive) in the assay on OVCAR-4; 25.4 µM (inactive) in the assay on OVCAR-8; 18.5 µM (inactive) with SK-MEL-28. The GI50 was 15.7 µM (inactive) in the assay on TK-10 and 18.2 µM (inactive) in the assay on U-251.
For the compound `CCOC(=O)Nc1ccc(S(=O)(=O)Nn2cnnc2)cc1`, the GI50 was 46.5 µM (inactive) with 786-0; 27.2 µM (inactive) with A498; 60.4 µM (inactive) with A549; 53.5 µM (inactive) in the assay with BT-549; 33.8 µM (inactive) with HCC 2998; 30.1 µM (inactive) with HCT-116. Besides, the GI50 in the assay on HT-29 is 20.3 µM (inactive); in the assay on LOX IMVI, 69.3 µM (inactive); with M14 it was 43 µM (inactive); in the assay on MDA-N, 22 µM (inactive); with MOLT-4 it was 50.7 µM (inactive); in the assay with Malme-3M it was 44.3 µM (inactive). Moreover, the GI50 was > 100 µM (inactive) with NCI-H23; 50 µM (inactive) in the assay on NCI-H460; 48.1 µM (inactive) in the assay with NCI-H522; 17.5 µM (inactive) with OVCAR-4; > 100 µM (inactive) with OVCAR-8; 42.8 µM (inactive) in the assay with SK-MEL-28. Also, the GI50 with TK-10 was 85.5 µM (inactive); in the assay with U-251, 44.3 µM (inactive).
For the compound `CCCCCCCCCCCCCCCCCCNc1ccn(C2OC(COP(=O)(O)OCC3OC(n4ccc(NC(=O)CCCCCCCCCCCCCCCCC)nc4=O)C(OC(C)=O)C3OC(C)=O)C(OC(C)=O)C2OC(C)=O)c(=O)n1` (stereo not given), the GI50 in the assay on 786-0, in the assay on A498, in the assay with A549, in the assay on BT-549, with HCC 2998 and in the assay with HCT-116 was > 100 µM (inactive) in each case. For the same compound, the GI50 in the assay on HT-29, in the assay on LOX IMVI, in the assay on M14, in the assay on MDA-N, in the assay on MOLT-4 and with Malme-3M was > 100 µM (inactive) each time. Moreover, the GI50 with NCI-H23, in the assay with NCI-H460, in the assay with NCI-H522, with OVCAR-4, with OVCAR-8 and with SK-MEL-28 was > 100 µM (inactive) each time. Also, the GI50 in the assay on TK-10 and with U-251 was > 100 µM (inactive) throughout.
